From ChEMBL document CHEMBL3046607, “Synthesis and Herbicidal Activity of New 1-Alkyl-3-aryloxypyrazole-4-carboxamide Derivatives” (J Pestic Sci, 2004)
Calls of active or inactive are those of the source. The rule behind the calls is not given here.

Key:
Elatine triandra [1] = assay: Post-emergence herbicidal activity against Elatine triandra assessed as bleaching of stem/leaf parts; assay type: functional, organism-based; also: test concentration or dose not given here
Ammannia multiflora [2] = assay: Post-emergence herbicidal activity against Ammannia multiflora assessed as bleaching of stem/leaf parts; assay type: functional, organism-based
Rotala indica [3] = assay: Post-emergence herbicidal activity against Rotala indica assessed as bleaching of stem/leaf parts; assay type: functional, organism-based
Lindernia procumbens [4] = assay: Post-emergence herbicidal activity against Lindernia procumbens assessed as bleaching of stem/leaf parts; assay type: functional, organism-based; also: test concentration or dose not given here
[5] = tested on: Schoenoplectiella juncoides; assay: Post-emergence herbicidal activity against Schoenoplectiella juncoides assessed as bleaching of stem/leaf parts; assay type: functional, organism-based; also: test concentration or dose not given here
Ammannia multiflora [6] = assay: Pre-emergence herbicidal activity against Ammannia multiflora at 500 g a.i/ha measured after 14 days; assay type: functional, organism-based
Elatine triandra [7] = assay: Pre-emergence herbicidal activity against Elatine triandra at 500 g a.i/ha measured after 14 days; assay type: functional, organism-based
Oryza sativa = assay: Phytotoxicity against Oryza sativa cv. Koshihikari (rice) at 500 g a.i/ha measured after 14 days; assay type: organism-based; conditions: in vivo, 336 h
Rotala indica [8] = assay: Pre-emergence herbicidal activity against Rotala indica at 500 g a.i/ha measured after 14 days; assay type: functional, organism-based
Lindernia procumbens [9] = assay: Pre-emergence herbicidal activity against Lindernia procumbens at 500 g a.i/ha measured after 14 days; assay type: functional, organism-based
[10] = tested on: Schoenoplectiella juncoides; assay: Pre-emergence herbicidal activity against Schoenoplectiella juncoides at 500 g a.i/ha measured after 14 days; assay type: functional, organism-based
Pontederia vaginalis [11] = assay: Pre-emergence herbicidal activity against Monochoria vaginalis at 500 g a.i/ha measured after 14 days; assay type: functional, organism-based
Cyperus difformis [12] = assay: Pre-emergence herbicidal activity against Cyperus difformis at 500 g a.i/ha measured after 14 days; assay type: functional, organism-based
Echinochloa oryzicola [13] = assay: Pre-emergence herbicidal activity against Echinochloa oryzicola at 500 g a.i/ha measured after 14 days; assay type: functional, organism-based
Lindernia procumbens [14] = assay: Pre-emergence herbicidal activity against Lindernia procumbens assessed as bleaching of stem/leaf parts; assay type: functional, organism-based
Pontederia vaginalis [15] = assay: Pre-emergence herbicidal activity against Monochoria vaginalis assessed as bleaching of stem/leaf parts; assay type: functional, organism-based
[16] = tested on: Schoenoplectiella juncoides; assay: Pre-emergence herbicidal activity against Schoenoplectiella juncoides assessed as bleaching of stem/leaf parts; assay type: functional, organism-based
Cyperus difformis [17] = assay: Pre-emergence herbicidal activity against Cyperus difformis assessed as bleaching of stem/leaf parts; assay type: functional, organism-based
Echinochloa oryzicola [18] = assay: Pre-emergence herbicidal activity against Echinochloa oryzicola assessed as bleaching of stem/leaf parts; assay type: functional, organism-based
Cyperus difformis [19] = assay: Post-emergence herbicidal activity against Cyperus difformis assessed as bleaching of stem/leaf parts; assay type: functional, organism-based; also: test concentration or dose not given here
Pontederia vaginalis [20] = assay: Post-emergence herbicidal activity against Monochoria vaginalis assessed as bleaching of stem/leaf parts; assay type: functional, organism-based
Echinochloa oryzicola [21] = assay: Post-emergence herbicidal activity against Echinochloa oryzicola assessed as bleaching of stem/leaf parts; assay type: functional, organism-based
Ammannia multiflora [22] = assay: Pre-emergence herbicidal activity against Ammannia multiflora assessed as bleaching of stem/leaf parts; assay type: functional, organism-based
Elatine triandra [23] = assay: Pre-emergence herbicidal activity against Elatine triandra assessed as bleaching of stem/leaf parts; assay type: functional, organism-based
Rotala indica [24] = assay: Pre-emergence herbicidal activity against Rotala indica assessed as bleaching of stem/leaf parts; assay type: functional, organism-based

Row | SMILES | Activity (Elatine triandra [1]) | Activity (Ammannia multiflora [2]) | Activity (Rotala indica [3]) | Activity (Lindernia procumbens [4]) | Activity [5] | Activity (Ammannia multiflora [6]) | Activity (Elatine triandra [7]) | Activity (Oryza sativa) | Activity (Rotala indica [8]) | Activity (Lindernia procumbens [9]) | Activity [10] | Activity (Pontederia vaginalis [11]) | Activity (Cyperus difformis [12]) | Activity (Echinochloa oryzicola [13]) | Activity (Lindernia procumbens [14]) | Activity (Pontederia vaginalis [15]) | Activity [16] | Activity (Cyperus difformis [17]) | Activity (Echinochloa oryzicola [18]) | Activity (Cyperus difformis [19]) | other results
1 | Cn1cc(C(=O)NCc2cccc(Cl)c2)c(Oc2cccc(C(F)(F)F)c2)n1 | Active | Active | Active | Active | Active | inactive | inactive | Non-toxic | inactive | inactive | inactive | inactive | inactive | inactive | Active | Active | Active | Active | Active | Active | Activity (Pontederia vaginalis [20]): Active; Activity (Echinochloa oryzicola [21]): Active; Activity (Ammannia multiflora [22]): Active; Activity (Elatine triandra [23]): Active; Activity (Rotala indica [24]): Active
2 | Cn1cc(NC(=O)c2ccc(F)cc2F)c(Oc2cccc(C(F)(F)F)c2)n1 | Active | Active | Active | Active | Active | inactive | inactive | Non-toxic | inactive | inactive | inactive | inactive | inactive | inactive | Active | Active | Active | Active | Active | Active | Activity (Pontederia vaginalis [20]): Active; Activity (Echinochloa oryzicola [21]): Active; Activity (Ammannia multiflora [22]): Active; Activity (Elatine triandra [23]): Active; Activity (Rotala indica [24]): Active
3 | Cn1cc(NC(=O)c2ccc(F)cc2F)c(OCc2cccc(C(F)(F)F)c2)n1 | Active | Active | Active | Active | Active | Active | Active | Non-toxic | Active | Active | Active | Active | Active | Active | Active | Active | Active | Active | Active | Active | Activity (Pontederia vaginalis [20]): Active; Activity (Echinochloa oryzicola [21]): Active; Activity (Ammannia multiflora [22]): Active; Activity (Elatine triandra [23]): Active; Activity (Rotala indica [24]): Active
4 | Cn1cc(C(=O)NC2CC2)c(Oc2cccc(C(F)(F)F)c2)n1 | Active | Active | Active | Active | Active | inactive | inactive | Non-toxic | inactive | inactive | inactive | inactive | inactive | inactive | Active | Active | Active | Active | Active | Active | Activity (Pontederia vaginalis [20]): Active; Activity (Echinochloa oryzicola [21]): Active; Activity (Ammannia multiflora [22]): Active; Activity (Elatine triandra [23]): Active; Activity (Rotala indica [24]): Active
5 | CCCCNC(=O)c1cn(C)nc1Oc1cccc(C(F)(F)F)c1 | Active | Active | Active | Active | Active | inactive | inactive | Non-toxic | inactive | inactive | inactive | inactive | inactive | inactive | Active | Active | Active | Active | Active | Active | Activity (Pontederia vaginalis [20]): Active; Activity (Echinochloa oryzicola [21]): Active; Activity (Ammannia multiflora [22]): Active; Activity (Elatine triandra [23]): Active; Activity (Rotala indica [24]): Active
6 | Cn1cc(NC(=O)c2ccccc2)c(Oc2cccc(C(F)(F)F)c2)n1 | Active | Active | Active | Active | Active | inactive | inactive | Non-toxic | inactive | inactive | inactive | inactive | inactive | Active | Active | Active | Active | Active | Active | Active | Activity (Pontederia vaginalis [20]): Active; Activity (Echinochloa oryzicola [21]): Active; Activity (Ammannia multiflora [22]): Active; Activity (Elatine triandra [23]): Active; Activity (Rotala indica [24]): Active
7 | CC(NC(=O)c1cn(C)nc1Oc1cccc(C(F)(F)F)c1)c1ccccc1 (stereo not given) | Active | Active | Active | Active | Active | inactive | inactive | Non-toxic | inactive | inactive | inactive | inactive | inactive | inactive | Active | Active | Active | Active | Active | Active | Activity (Pontederia vaginalis [20]): Active; Activity (Echinochloa oryzicola [21]): Active; Activity (Ammannia multiflora [22]): Active; Activity (Elatine triandra [23]): Active; Activity (Rotala indica [24]): Active
8 | CCCN(CC)C(=O)c1cn(C)nc1Oc1cccc(C(F)(F)F)c1 | Active | Active | Active | Active | Active | inactive | inactive | Non-toxic | inactive | inactive | inactive | inactive | inactive | inactive | Active | Active | Active | Active | Active | Active | Activity (Pontederia vaginalis [20]): Active; Activity (Echinochloa oryzicola [21]): Active; Activity (Ammannia multiflora [22]): Active; Activity (Elatine triandra [23]): Active; Activity (Rotala indica [24]): Active
